Reference: BindingDB's records for doi:10.3109/14756360902932784 (Ewha Womans University, 2010)
Residue numbers refer to the chain shown, from its start.

Key:
[1] = target: T1, 5-hydroxytryptamine receptor 1A (Homo sapiens, UniProt P08908); assay: [3H]8-OH-DPAT Binding Assay; settings: pH 7.4; 27 °C
T1 sequence (P08908 whole entry): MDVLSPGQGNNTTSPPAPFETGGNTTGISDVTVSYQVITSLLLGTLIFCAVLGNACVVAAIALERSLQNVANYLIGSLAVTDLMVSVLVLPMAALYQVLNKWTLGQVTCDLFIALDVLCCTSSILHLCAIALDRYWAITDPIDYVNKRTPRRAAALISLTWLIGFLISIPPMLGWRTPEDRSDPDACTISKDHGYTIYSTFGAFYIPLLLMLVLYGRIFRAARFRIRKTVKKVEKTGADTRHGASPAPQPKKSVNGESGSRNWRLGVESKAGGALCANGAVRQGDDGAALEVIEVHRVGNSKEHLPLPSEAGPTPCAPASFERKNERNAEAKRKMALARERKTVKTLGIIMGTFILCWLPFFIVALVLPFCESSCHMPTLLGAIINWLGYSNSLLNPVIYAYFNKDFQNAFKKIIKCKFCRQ
Description: For the binding assay, aliquots of receptor membranes, 0.25 nM [3H]8-OH-DPAT (8-hydroxy-2-(di-N-propylamino)tetralin, 154.3 Ci/mM; New England Nuclear, Boston, MA) and appropriate concentrations of test compounds were added to 0.25 mL of 50 mM Tris-HCl (pH 7.4) buffer containing 10 mM MgSO4, 0.5 mM ethylenediaminetetraacetic acid (EDTA), and 0.1% ascorbic acid. Incubations were carried out for 60 min at 27 °C, and these were terminated by rapid filtration using a MicroBeta FilterMate-96 harvester (PerkinElmer) through a Filtermat A glass fiber filter presoaked in 0.3% polyethylenimine (PEI). The filter was washed with ice-cold 50 mM Tris-HCl buffer solution (pH 7.4), and was then covered with MeltiLex, sealed in a sample bag, and dried in an oven.

[2] = target: T2, 5-hydroxytryptamine receptor 2C (Homo sapiens, UniProt P28335); assay: [3H]Mesulergine Binding Assay; settings: pH 7.4
T2 sequence (P28335 whole entry): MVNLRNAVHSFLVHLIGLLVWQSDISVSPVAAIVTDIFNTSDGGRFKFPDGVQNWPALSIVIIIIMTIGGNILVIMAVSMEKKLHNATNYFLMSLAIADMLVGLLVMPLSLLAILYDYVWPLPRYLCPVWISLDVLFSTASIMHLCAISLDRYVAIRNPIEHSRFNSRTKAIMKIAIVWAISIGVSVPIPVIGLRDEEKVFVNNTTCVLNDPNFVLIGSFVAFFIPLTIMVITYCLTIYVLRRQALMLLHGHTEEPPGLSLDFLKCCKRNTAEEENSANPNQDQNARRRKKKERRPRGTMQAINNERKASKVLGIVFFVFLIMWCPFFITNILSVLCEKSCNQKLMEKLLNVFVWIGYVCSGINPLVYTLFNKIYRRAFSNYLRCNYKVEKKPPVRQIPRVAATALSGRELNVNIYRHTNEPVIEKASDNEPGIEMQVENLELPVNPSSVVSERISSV
Description: (§1) Frozen membranes from a stable CHO-K1 cell line expressing the human recombinant 5-HT2C receptor (PerkinElmer) were used. For the binding assay, [3H]mesulergine (1 nM; Amersham Biosciences, Buckinghamshire, UK), receptor membrane, and test compounds were added into 50 mM Tris-HCl (pH 7.4) buffer containing 0.1% ascorbic acid and 4 mM CaCl2. Nonspecific binding was determined using 100 μM mianserin. The incubations were performed for 60 min at 27°C, and these were terminated by rapid filtration through a Filtermat A glass fiber filter presoaked in 0.5% PEI.

[3] = target: 5-hydroxytryptamine receptor 6 (Homo sapiens, UniProt P50406); assay: [3H] LSD Binding Assay; settings: pH 7.4; 27 °C
Description: (§2) For receptor binding assays, human 5-HT6 and 5-HT7 serotonin receptors expressed in CHO-K1 cells (PerkinElmer) were used. For 5-HT6 receptor binding, frozen membrane, 1 nM [3H]LSD (lysergic acid diethylamide; PerkinElmer), and appropriate concentrations of test compounds were added to 0.25 mL of 50 mM Tris-HCl (pH 7.4) buffer containing 0.1% ascorbic acid and 4 mM CaCl2. Nonspecific binding was determined using 10 μM methiothepin. The incubations were performed for 60 min at 27 °C, and these were terminated by rapid filtration through a Filtermat A glassfiber filter presoaked in 0.5% PEI. For the 5-HT7 receptor binding assay, cell membrane, 3 nM [3H]LSD, and appropriate concentrations of test compounds were added to 0.25 mL of 50 mM Tris-HCl (pH 7.4) buffer containing 10 mM MgSO4 and 0.5 mM EDTA. The mixture was incubated for 120 min at 27 °C, and the reaction was terminated by rapid filtration through a Filtermat A glass fiber filter presoaked in 0.3% PEI. Nonspecific binding was determined using 10 μM methiothepin.

[4] = target: 5-hydroxytryptamine receptor 7 (Homo sapiens, UniProt P34969); assay: [3H] LSD Binding Assay; settings: pH 7.4; 27 °C
Description: as §2

[5] = target: 5-hydroxytryptamine receptor 2A (Homo sapiens, UniProt P28223); assay: [3H]Ketanserin Binding Assay; settings: pH 7.4
Description: For serotonin 5-HT2A binding, an aliquot of frozen membrane from a CHO-K1 cell line expressing the human recombinant 5-HT2A receptor (PerkinElmer) and [3H]ketanserin (1 nM; PerkinElmer) were used in the presence of mianserin (20 μM) as nonspecific. The reaction mixture was incubated for 60 min at 27°C using 50 mM Tris-HCl (pH 7.4) buffer containin 4 mM CaCl2 and 0.1% ascorbic acid, and harvested through a Filtermat A glass fiber filter presoaked in 0.5% PEI.

[6] = target: T3, 5-hydroxytryptamine receptor 2C (Homo sapiens, UniProt P28335); assay: [3H]Mesulergine Binding Assay; settings: pH 7.4; remark: listed apart in the source
T3 sequence (P28335 whole entry): T2 sequence (P28335 whole entry) with S23C
Description: as §1

Chain of 5-hydroxytryptamine receptor 2A (P28223 whole entry): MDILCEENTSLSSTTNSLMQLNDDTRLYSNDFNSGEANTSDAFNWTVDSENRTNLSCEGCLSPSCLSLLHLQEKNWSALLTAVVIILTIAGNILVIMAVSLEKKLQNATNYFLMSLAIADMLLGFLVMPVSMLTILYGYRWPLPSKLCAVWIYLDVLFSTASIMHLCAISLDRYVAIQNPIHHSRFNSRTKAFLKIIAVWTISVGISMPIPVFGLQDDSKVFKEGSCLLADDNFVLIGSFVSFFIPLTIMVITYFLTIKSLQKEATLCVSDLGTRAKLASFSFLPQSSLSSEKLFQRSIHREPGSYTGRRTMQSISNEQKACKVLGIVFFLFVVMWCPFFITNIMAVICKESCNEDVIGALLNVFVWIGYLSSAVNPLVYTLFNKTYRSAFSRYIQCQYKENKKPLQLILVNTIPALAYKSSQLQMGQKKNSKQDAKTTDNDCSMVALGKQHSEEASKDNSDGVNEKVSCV
Chain of 5-hydroxytryptamine receptor 7 (P34969 whole entry): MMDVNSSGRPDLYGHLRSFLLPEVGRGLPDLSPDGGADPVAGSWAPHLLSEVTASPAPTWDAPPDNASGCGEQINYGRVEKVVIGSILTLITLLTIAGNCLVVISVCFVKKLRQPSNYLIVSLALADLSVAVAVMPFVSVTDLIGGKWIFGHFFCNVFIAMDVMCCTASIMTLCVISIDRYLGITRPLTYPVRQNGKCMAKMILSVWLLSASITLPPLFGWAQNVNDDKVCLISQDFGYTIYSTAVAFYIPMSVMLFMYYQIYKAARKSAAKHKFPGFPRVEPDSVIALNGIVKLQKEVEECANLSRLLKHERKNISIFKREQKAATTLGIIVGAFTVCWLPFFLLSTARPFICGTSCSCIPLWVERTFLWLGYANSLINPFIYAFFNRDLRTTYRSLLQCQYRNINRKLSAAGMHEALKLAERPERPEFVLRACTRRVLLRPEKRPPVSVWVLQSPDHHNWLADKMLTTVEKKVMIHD
Chain of 5-hydroxytryptamine receptor 6 (P50406 whole entry): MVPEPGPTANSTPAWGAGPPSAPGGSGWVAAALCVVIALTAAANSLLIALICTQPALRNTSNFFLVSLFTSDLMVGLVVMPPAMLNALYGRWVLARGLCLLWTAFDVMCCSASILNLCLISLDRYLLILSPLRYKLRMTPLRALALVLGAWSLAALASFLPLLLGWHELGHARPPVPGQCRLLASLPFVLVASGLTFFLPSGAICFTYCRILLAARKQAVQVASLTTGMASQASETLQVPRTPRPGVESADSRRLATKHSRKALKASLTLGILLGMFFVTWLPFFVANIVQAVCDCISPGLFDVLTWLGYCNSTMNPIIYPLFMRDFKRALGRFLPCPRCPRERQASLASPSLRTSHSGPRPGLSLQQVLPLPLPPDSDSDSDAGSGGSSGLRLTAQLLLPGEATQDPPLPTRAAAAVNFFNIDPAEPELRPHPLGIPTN

Compound	IC50 [1]	IC50 [2]	IC50 [3]	IC50 [4]	IC50 [5]	IC50 [6]
COc1cc(/C=C/C(=O)O)cc(OC)c1OC [3,4,5-Trimethoxycinnamic acid (TMCA)]	7.6 µM	2.5 µM	> 10 µM	> 10 µM	> 10 µM	
C=CCNC(=O)/C=C/c1cc(OC)c(OC)c(OC)c1 [(E)-N-Allyl-3-(3,4,5-trimethoxyphenyl) acrylamide (1b)]	5.9 µM		> 10 µM	> 10 µM	> 10 µM	> 10 µM
CCCCNC(=O)/C=C/c1cc(OC)c(OC)c(OC)c1 [(E)-N-Butyl-3-(3,4,5-trimethoxyphenyl) acrylamide (1c)]	4.9 µM		> 10 µM	> 10 µM	> 10 µM	> 10 µM
CCCCCCNC(=O)/C=C/c1cc(OC)c(OC)c(OC)c1 [(E)-N-Hexyl-3-(3,4,5-trimethoxyphenyl) acrylamide (1d)]	3.8 µM		> 10 µM	> 10 µM	> 10 µM	> 10 µM
CNC(=O)/C=C/c1cc(OC)c(OC)c(OC)c1 [(E)-N-Methyl-3-(3,4,5-trimethoxyphenyl) acrylamide (1a)]	5.6 µM		> 10 µM	> 10 µM	> 10 µM	> 10 µM

Compounds with a lower IC50 [1], results first:

IC50 [1]	IC50 [2]	IC50 [3]	IC50 [4]	IC50 [5]	IC50 [6]	Compound
2.1 µM	4.5 µM	5.6 µM	6.7 µM	6.8 µM		CCCCCCCCCCNC(=O)/C=C/c1cc(OC)c(OC)c(OC)c1 [(E)-N-Decyl-3-(3,4,5-trimethoxyphenyl) acrylamide (1f)]
1.2 µM	8.8 µM	> 10 µM	> 10 µM	> 10 µM		CCCCCCCCNC(=O)/C=C/c1cc(OC)c(OC)c(OC)c1 [(E)-N-Octyl-3-(3,4,5-trimethoxyphenyl) acrylamide (1e)]
